According to patent US20240350659A1, “COMPOSITIONS AND METHODS FOR BIMODAL ANTI-VIRAL COMBINATION THERAPY” (priority 2021, published 2024):

Assays:
SARS-COV-2 [1] = experiment: Human ACE2 transgenic COVID-19 mouse model (intranasal SARS-COV-2 infection); type: in vivo, mice; conditions: for Survival (%): Daily
SARS-COV-2 [2] = experiment: In vitro inhibition of SARS-COV-2 replication in Vero E6 cells (viral load by quantitative real-time RT-PCR); type: cell-based; conditions: for effect of removal of the single agent from the formulation on overall activity (FIG. 18): APHR Combination 1 minus one agent
SARS-COV-2 [3] = conditions: WHO Solidarity Trial; cited from earlier work
SARS-COV-2 [4] = conditions: 5-day course, 476 patients, mild COVID-19; cited from earlier work
SARS-COV-2 [5] = type: in vivo; conditions: intention-to-treat population; 10 subjects per arm
[6] = 200 mg/kg, Pretreatment to Day 7

O=c1c(O)c(-c2ccc(O)c(O)c2)oc2cc(O)cc(O)c12 [Quercitin]
Survival (%) (SARS-COV-2 [1]; 66 mg/kg, Pretreatment to Day 7): 80% | Survival (%) (SARS-COV-2 [1]; [6]): 100%

CCC(CC)COC(=O)[C@H](C)N[P@](=O)(OC[C@H]1O[C@@](C#N)(c2ccc3c(N)ncnn23)[C@H](O)[C@@H]1O)Oc1ccccc1 [Remdesivir]
Survival (%) (SARS-COV-2 [1]; 50 mg/kg, Day 1 post-treatment to 7): 100% | Survival (%) (SARS-COV-2 [1]; [6]): 100%

CC(C)=CCC[C@](C)(O)C1CC=C(C)CC1 (stereo partly shown) [bisabolol]
effect of removal of the single agent from the formulation on overall activity (FIG. 18) (SARS-COV-2 [2]): reduced overall activity

CCN(CCO)CCCC(C)Nc1ccnc2cc(Cl)ccc12 (stereo not shown) [hydroxychloroquine]
effect on hospitalized patients with Covid-19 (SARS-COV-2 [3]): little or no effect

Cc1cccc(C)c1OCC(=O)N[C@@H](Cc1ccccc1)[C@@H](O)C[C@H](Cc1ccccc1)NC(=O)[C@H](C(C)C)N1CCCNC1=O [lopinavir]
effect on hospitalized patients with Covid-19 (SARS-COV-2 [3]): little or no effect

C[C@@H]1O[C@@H](OC[C@H]2O[C@@H](Oc3c(-c4ccc(O)c(O)c4)oc4cc(O)cc(O)c4c3=O)[C@H](O)[C@@H](O)[C@@H]2O)[C@H](O)[C@H](O)[C@H]1O [rutin]
inhibition at 1 µM (SARS-COV-2 [2]; Severe acute respiratory syndrome coronavirus 2, Vero C1008, 1 μM final concentration, 1:1 molar ratio of cyclodextrin to rutin, read-out: inhibition of SARS-COV-2 replication over untreated (FIG. 16)): ~25%

O=C(OC[C@H]1O[C@@H](OC(=O)c2cc(O)c(O)c(OC(=O)c3cc(O)c(O)c(O)c3)c2)[C@H](OC(=O)c2cc(O)c(O)c(OC(=O)c3cc(O)c(O)c(O)c3)c2)[C@@H](OC(=O)c2cc(O)c(O)c(OC(=O)c3cc(O)c(O)c(O)c3)c2)[C@@H]1OC(=O)c1cc(O)c(O)c(OC(=O)c2cc(O)c(O)c(O)c2)c1)c1cc(O)c(O)c(OC(=O)c2cc(O)c(O)c(O)c2)c1 [tannic acid]
effect of removal of the single agent from the formulation on overall activity (FIG. 18) (SARS-COV-2 [2]): reduced overall activity

ivermectin
duration of symptoms compared with placebo (SARS-COV-2 [4]): not significantly different | morbidity, body weight (FIG. 8) (SARS-COV-2 [1]; β-cyclodextrin Rutin daily from Day 2 post infection, Ivermectin once on Day 2 post infection): decreased morbidity | Time to defervescence (days) (SARS-COV-2 [5]): 4 (3 to 6) days | Time to resolution of COVID symptoms (days) (SARS-COV-2 [5]): 4 (3 to 6) days
